Reference: ChEMBL document CHEMBL1201862, “PubChem BioAssay data set” (2004)
Activity calls are given as the source filed them.

Experiments:
[1] = Luminescence Cell-Based Dose Retest to Confirm Inhibitors of Cancer Stem Cells. [Related pubchem assays (depositor defined):AID2717, AID2721]; type: functional; conditions: Homo sapiens
cells = type: functional, cell-based
[2] = loss of viability in HepG2 cells – cell-based, CellTiter-Glo, cherry-picked, cytotoxicity control for Shn3 inhibitor project, dose response (AID 624134); type: functional
Jurkat = assay: SAR Analysis of small molecule inhibitors of T-cell specific antigen receptor-induced NF-kB activation in a Jurkat cell line using a luminescence assay - Set 2. [Related pubchem assays (depositor defined):AID435003, AID435012, AID465]; type: functional, cell-based; conditions: Homo sapiens
HEK293 = assay: membrane integrity loss in HEK cells – cell-based, fluorescence, cytotoxicity control for IDE activator project, dose response (AID 588440); type: functional; conditions: Homo sapiens;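 further: cytotoxicity by LDH release measuring loss of membrane integrity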
ORF 73 = ORF 73 (Human herpesvirus 8, UniProt O40947); assay: KSHV LANA DNA-binding disruption – biochemical, fluorescence polarization, cherry-picked samples, dose response (AID 504725); parameters: species or system Human gammaherpesvirus 8;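 further: fluorescence polarization of a labeled DNA duplex reporting LANA DNA binding; potency is for inhibitors that block LANA binding to the DNA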
[3] = biological target: Histone-lysine N-methyltransferase NSD2 (Homo sapiens, UniProt O96028); type: biochemical
Insulin-degrading enzyme = biological target: T1, Insulin-degrading enzyme (Homo sapiens, UniProt P14735); assay: recombinant IDE activation, cell-free – biochemical, fluorescence polarization, counter-screen for IDE activator project, dose response (AID 588681)
T1 sequence (P14735 whole entry): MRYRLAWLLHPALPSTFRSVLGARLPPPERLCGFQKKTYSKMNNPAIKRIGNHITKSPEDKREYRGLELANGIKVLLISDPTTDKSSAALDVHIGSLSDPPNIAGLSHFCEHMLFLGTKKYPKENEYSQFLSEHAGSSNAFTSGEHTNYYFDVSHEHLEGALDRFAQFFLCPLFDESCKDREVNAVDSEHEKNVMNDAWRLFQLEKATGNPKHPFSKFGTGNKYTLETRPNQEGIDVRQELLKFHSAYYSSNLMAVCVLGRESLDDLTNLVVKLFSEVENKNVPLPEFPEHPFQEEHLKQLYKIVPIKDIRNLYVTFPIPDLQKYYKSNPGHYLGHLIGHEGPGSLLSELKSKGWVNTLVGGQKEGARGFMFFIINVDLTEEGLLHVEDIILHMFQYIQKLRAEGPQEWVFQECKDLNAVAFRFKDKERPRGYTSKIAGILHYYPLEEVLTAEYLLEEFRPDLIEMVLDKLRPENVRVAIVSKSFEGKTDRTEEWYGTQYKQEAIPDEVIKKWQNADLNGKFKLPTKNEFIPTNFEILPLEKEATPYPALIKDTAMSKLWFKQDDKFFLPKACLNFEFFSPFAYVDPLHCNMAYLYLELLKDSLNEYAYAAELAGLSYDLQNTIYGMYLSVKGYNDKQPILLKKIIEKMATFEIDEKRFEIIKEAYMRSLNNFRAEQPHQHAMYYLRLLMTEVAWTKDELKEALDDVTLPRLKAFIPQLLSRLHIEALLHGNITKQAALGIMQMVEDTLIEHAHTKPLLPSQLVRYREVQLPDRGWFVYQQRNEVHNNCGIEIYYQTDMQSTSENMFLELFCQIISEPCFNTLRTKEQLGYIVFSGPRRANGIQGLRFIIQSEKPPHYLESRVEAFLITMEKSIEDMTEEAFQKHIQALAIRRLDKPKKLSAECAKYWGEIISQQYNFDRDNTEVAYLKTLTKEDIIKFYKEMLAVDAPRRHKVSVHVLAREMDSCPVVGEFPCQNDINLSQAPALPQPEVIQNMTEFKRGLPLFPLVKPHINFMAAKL

[4] = Counterscreen for activators of the function of SWI/SNF related, matrix associated, actin dependent regulator of chromatin, subfamily a, member 2 (SMARCA2, BRM): Luminescence-based cell-based high throughput dose response assay to identify non-selective compounds using the VP16 reporter assay.; type: functional
HeLa = assay: viability loss in HeLa cells – cell-based, 24 h, cherry-picked samples, cytotoxicity control, dose response (AID 504726); type: functional; conditions: Homo sapiens;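 further: potency for cytotoxicity as loss of luminescence signal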
Hexokinase HKDC1 [5] = biological target: T2, Hexokinase HKDC1 (Homo sapiens, UniProt Q2TB90); assay: inhibition of HKDC1 glucose phosphorylation – biochemical, W721R variant, dose response (AID 504729); type: functional
T2 sequence (Q2TB90 whole entry): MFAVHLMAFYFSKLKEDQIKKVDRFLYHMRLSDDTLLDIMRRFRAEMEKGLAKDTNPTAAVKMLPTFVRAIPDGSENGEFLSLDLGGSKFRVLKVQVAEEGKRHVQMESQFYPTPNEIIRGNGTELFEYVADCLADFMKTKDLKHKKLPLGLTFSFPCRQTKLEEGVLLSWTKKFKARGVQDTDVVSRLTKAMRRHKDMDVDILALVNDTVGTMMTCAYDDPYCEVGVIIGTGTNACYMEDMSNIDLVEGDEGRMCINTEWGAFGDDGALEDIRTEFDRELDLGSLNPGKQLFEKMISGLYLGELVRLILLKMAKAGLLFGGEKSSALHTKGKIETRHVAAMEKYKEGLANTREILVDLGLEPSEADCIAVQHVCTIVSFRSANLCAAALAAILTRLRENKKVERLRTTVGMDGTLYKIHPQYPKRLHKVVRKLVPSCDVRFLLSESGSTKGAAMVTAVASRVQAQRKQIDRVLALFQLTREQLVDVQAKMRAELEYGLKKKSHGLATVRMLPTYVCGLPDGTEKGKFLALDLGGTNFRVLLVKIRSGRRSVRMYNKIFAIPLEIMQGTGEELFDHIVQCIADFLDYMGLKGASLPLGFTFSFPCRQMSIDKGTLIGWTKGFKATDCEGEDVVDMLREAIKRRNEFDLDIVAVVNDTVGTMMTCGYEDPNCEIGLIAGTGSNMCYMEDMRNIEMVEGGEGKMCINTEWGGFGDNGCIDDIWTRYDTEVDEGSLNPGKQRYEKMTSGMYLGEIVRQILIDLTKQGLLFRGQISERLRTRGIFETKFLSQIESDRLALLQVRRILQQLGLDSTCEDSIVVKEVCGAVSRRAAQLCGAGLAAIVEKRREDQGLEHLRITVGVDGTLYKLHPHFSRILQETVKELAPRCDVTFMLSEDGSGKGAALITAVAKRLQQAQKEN

Hexokinase HKDC1 [6] = biological target: T2, Hexokinase HKDC1; assay: analog inhibition of human HKDC1 activity – biochemical, set 2, SAR follow-up (AID 588355); type: functional
Caspase-3 = biological target: T3, Caspase-3 (Homo sapiens, UniProt P42574); assay: activation of caspase-3 zymogen – biochemical, absorbance, dose response (AID 489014)
T3 sequence (P42574 whole entry): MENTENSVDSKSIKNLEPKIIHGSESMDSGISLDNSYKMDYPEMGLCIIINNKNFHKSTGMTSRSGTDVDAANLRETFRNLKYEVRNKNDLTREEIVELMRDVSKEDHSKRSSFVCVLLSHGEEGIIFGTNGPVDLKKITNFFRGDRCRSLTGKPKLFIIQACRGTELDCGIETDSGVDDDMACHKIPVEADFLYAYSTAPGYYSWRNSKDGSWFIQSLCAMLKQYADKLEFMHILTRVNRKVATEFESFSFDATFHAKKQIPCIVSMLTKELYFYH

Chain of ORF 73 (O40947 whole entry): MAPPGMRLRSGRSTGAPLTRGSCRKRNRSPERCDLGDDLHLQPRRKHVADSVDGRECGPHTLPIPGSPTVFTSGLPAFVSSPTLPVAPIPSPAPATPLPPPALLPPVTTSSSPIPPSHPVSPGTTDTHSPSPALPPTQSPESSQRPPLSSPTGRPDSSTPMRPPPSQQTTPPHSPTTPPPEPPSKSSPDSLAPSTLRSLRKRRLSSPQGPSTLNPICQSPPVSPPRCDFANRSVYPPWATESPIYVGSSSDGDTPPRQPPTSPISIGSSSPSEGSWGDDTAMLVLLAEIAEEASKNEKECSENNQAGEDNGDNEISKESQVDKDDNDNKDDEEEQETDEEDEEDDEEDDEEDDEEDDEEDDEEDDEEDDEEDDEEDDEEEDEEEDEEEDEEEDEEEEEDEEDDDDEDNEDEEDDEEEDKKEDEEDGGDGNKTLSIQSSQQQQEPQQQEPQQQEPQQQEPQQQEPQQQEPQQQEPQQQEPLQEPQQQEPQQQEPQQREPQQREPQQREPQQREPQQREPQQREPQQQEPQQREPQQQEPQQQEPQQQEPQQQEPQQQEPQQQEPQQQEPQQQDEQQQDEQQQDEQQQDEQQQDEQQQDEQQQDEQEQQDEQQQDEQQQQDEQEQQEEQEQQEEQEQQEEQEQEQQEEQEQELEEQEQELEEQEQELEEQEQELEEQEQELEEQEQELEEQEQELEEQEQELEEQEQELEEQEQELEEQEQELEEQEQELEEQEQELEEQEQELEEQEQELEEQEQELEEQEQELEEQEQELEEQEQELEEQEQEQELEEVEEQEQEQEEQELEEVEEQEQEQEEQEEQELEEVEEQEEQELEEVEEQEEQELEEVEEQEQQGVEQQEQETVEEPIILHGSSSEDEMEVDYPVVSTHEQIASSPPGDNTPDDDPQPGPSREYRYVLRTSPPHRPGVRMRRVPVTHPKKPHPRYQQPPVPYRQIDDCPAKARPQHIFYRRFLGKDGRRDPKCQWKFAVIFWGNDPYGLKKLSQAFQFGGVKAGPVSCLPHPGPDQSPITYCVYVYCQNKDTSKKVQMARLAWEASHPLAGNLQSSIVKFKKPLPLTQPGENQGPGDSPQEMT
Chain of Histone-lysine N-methyltransferase NSD2 (O96028 whole entry): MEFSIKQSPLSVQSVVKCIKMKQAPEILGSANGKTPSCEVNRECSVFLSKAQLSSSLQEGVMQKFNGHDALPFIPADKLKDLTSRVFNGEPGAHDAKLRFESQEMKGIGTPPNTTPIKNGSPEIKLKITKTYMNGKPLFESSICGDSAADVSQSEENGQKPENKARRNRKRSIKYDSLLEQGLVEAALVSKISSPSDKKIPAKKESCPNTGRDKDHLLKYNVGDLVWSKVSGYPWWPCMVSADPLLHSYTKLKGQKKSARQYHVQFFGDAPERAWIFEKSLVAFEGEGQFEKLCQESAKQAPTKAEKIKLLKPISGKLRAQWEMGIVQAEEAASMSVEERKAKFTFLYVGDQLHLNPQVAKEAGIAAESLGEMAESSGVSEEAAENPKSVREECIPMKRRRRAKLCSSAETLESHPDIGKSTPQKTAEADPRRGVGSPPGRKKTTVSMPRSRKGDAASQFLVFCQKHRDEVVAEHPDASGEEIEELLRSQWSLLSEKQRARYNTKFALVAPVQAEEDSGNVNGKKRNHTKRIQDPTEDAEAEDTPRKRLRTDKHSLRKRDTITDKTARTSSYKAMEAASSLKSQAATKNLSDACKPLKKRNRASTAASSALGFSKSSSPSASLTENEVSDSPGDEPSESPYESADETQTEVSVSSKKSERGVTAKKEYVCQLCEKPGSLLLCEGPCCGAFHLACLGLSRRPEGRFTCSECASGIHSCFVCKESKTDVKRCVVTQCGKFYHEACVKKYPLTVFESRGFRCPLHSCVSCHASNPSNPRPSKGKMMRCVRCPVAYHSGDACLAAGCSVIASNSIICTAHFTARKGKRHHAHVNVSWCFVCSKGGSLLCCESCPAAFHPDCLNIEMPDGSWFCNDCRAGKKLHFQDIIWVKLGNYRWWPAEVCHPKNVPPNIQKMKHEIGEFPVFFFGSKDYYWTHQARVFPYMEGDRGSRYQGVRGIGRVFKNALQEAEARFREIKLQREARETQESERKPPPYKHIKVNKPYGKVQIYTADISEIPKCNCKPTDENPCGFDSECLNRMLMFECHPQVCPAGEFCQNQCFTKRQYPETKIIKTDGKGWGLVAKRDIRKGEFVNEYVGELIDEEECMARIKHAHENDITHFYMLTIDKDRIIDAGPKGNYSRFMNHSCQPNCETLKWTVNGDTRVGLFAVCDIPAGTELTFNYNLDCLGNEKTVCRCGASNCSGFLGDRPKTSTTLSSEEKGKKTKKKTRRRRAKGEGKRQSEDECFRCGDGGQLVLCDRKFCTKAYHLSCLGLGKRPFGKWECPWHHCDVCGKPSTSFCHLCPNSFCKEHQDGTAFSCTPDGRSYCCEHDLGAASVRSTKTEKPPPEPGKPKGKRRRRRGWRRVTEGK

For `CCCCC(=O)NC(c1ccco1)c1cc(Cl)c2cccnc2c1O` (stereo not drawn), the AC50 [1] was 3.33 µM (active).

In the case of `CCCCC(=O)NC(c1ccc(Cl)cc1)c1ccc2cccnc2c1O` (stereo not drawn), the EC50 (cells) is reported as 59.9 µM (active), the AC50 [2] is reported as 1.71 µM (active) and the IC50 (Jurkat) is reported as 5.28 µM (active).

For `COc1ccc2noc3c2c1C(=O)c1ccccc1-3`, the IC50 (HEK293) was > 89.2 µM (inactive), the AC50 (ORF 73) was 0.228 µM (active) and the AC50 [3] was > 20 µM (inactive). The EC50 (Insulin-degrading enzyme) was > 54.7 µM (inactive), the EC50 [4] was > 91.2 µM (inactive) and the AC50 (HeLa) was 74.7 µM (active).

With `CCc1ccc2c(c1)C(NC(C)=O)C(=O)N2CCN1CCOCC1` (stereo not drawn) the IC50 (Hexokinase HKDC1 [5]) was 6.27 µM (active) and the IC50 (Hexokinase HKDC1 [6]) was 7.56 µM (active).

For `O=C(N/N=C/c1ccccc1O)/C(O)=C\C1=NC2(CCCC2)Cc2ccccc21`, the EC50 (Caspase-3) was > 85.3 µM (inactive).
